In PubChem BioAssay AID248 (DTP/NCI, 2004):
Inconclusive results and toxic doses are left out. No stated cut-off is given here; in the data, active means T/C of 150% or more; inactive means T/C below 125%.

Tested on: L1210 leukemia ip in BDF1 mice, survival T/C
Experiment: NCI In Vivo Anticancer Drug Screen. Data for tumor model L1210 Leukemia (intraperitoneal) in B6D2F1 (BDF1) mice
Conditions: endpoint: mean survival time, higher = longer survival
Summary of the method: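 Read-out is survival time, reported as the treated-group measurement over the vehicle-control measurement.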

[1] = dose: 100.0 mg/kg/injection, schedule: Q01DX001 (ip), vehicle: saline
[2] = dose: 200.0 mg/kg/injection, schedule: Q01DX001 (ip), vehicle: saline
[3] = dose: 12.5 mg/kg/injection, schedule: Q04DX002 (ip), vehicle: saline
[4] = dose: 25.0 mg/kg/injection, schedule: Q04DX002 (ip), vehicle: saline
[5] = dose: 50.0 mg/kg/injection, schedule: Q04DX002 (ip), vehicle: saline
[6] = dose: 100.0 mg/kg/injection, schedule: Q04DX003 (ip), vehicle: Klucel (hydroxypropylcellulose) (HPC)
[7] = dose: 200.0 mg/kg/injection, schedule: Q04DX003 (ip), vehicle: Klucel (hydroxypropylcellulose) (HPC)
[8] = dose: 400.0 mg/kg/injection, schedule: Q04DX003 (ip), vehicle: Klucel (hydroxypropylcellulose) (HPC)
[9] = dose: 400.0 mg/kg/injection, schedule: Q01DX001 (ip), vehicle: saline
[10] = dose: 100.0 mg/kg/injection, schedule: Q01DX009 (ip), vehicle: Klucel (hydroxypropylcellulose) (HPC)
[11] = dose: 200.0 mg/kg/injection, schedule: Q01DX009 (ip), vehicle: Klucel (hydroxypropylcellulose) (HPC)
[12] = dose: 400.0 mg/kg/injection, schedule: Q01DX009 (ip), vehicle: Klucel (hydroxypropylcellulose) (HPC)
[13] = dose: 100.0 mg/kg/injection, schedule: Q01DX001 (ip), vehicle: carboxymethylcellulose (CMC)
[14] = dose: 200.0 mg/kg/injection, schedule: Q01DX001 (ip), vehicle: carboxymethylcellulose (CMC)
[15] = dose: 400.0 mg/kg/injection, schedule: Q01DX001 (ip), vehicle: carboxymethylcellulose (CMC)
[16] = dose: 100.0 mg/kg/injection, schedule: Q01DX005 (ip), vehicle: saline
[17] = dose: 200.0 mg/kg/injection, schedule: Q01DX005 (ip), vehicle: saline

Measured: T/C

CC(=O)Oc1c2ccccc2cc2ccccc12
inactive: dose: 100.0 mg/kg/injection, schedule: Q04DX002 (ip), vehicle: Klucel (hydroxypropylcellulose) (HPC) 114 % of control | dose: 400.0 mg/kg/injection, schedule: Q04DX002 (ip), vehicle: Klucel (hydroxypropylcellulose) (HPC) 118 % of control

O=S1(=O)CCC2CCCCC2C1 (centres undefined)
inactive: dose: 6.25 mg/kg/injection, schedule: Q01DX009 (ip), vehicle: saline with Tween-80 94 % of control | dose: 12.5 mg/kg/injection, schedule: Q01DX009 (ip), vehicle: saline with Tween-80 100 % of control | dose: 25.0 mg/kg/injection, schedule: Q01DX009 (ip), vehicle: saline with Tween-80 90 % of control

COc1ccc(C2C(=O)c3ccc(OC)c(OC)c3C2=O)cc1OC (centres undefined)
inactive: [1] 94 % of control | [2] 89 % of control

CCCCCCCCCCCCCCn1cnc2c(N)ncnc21
inactive: dose: 12.5 mg/kg/injection, schedule: Q01DX005 (ip), vehicle: other 101 % of control | dose: 25.0 mg/kg/injection, schedule: Q01DX005 (ip), vehicle: other 111 % of control | dose: 50.0 mg/kg/injection, schedule: Q01DX005 (ip), vehicle: other 101 % of control | dose: 100.0 mg/kg/injection, schedule: Q01DX005 (ip), vehicle: other 106 % of control

c1ccc2c(c1)OCCOCCOCCOCCO2
inactive: dose: 6.25 mg/kg/injection, schedule: Q04DX002 (ip), vehicle: saline 89 % of control | [3] 103 % of control | [4] 113 % of control | [5] 94 % of control

CCOC(=O)C1(C(=O)OCC)CCC(O)N1C(=O)c1cc2c(cc1[N+](=O)[O-])OCO2 (centres undefined)
inactive: [6] 91 % of control | [7] 99 % of control | [8] 100 % of control

CCCCCC[CH2][Ge][CH2]CCCCCC
inactive: dose: 100.0 mg/kg/injection, schedule: Q04DX002 (ip), vehicle: saline with Tween-80 95 % of control | dose: 200.0 mg/kg/injection, schedule: Q04DX002 (ip), vehicle: saline with Tween-80 92 % of control | dose: 400.0 mg/kg/injection, schedule: Q04DX002 (ip), vehicle: saline with Tween-80 103 % of control

Cc1c(O)c([N+](=O)[O-])cc2c1OCOC2
inactive: [6] 96 % of control | [7] 102 % of control | [8] 93 % of control

CSc1nc(C)c(NC(C)=O)c(=O)[nH]1
inactive: dose: 50.0 mg/kg/injection, schedule: Q01DX001 (ip), vehicle: saline 98 % of control | [1] 101 % of control | [2] 98 % of control | [9] 104 % of control

Cc1cccc(NC(=O)c2ccc(Cl)cc2Cl)c1C
inactive: [10] 102 % of control | [6] 101 % of control | [11] 91 % of control | [7] 90 % of control | [12] 91 % of control | [8] 93 % of control

COC1CCC(OC2CC(C3(C)CCC4(CC(O)C(C)C(C(C)/C=C(\C)C(=O)C(C)CC(C)C(=O)O)O4)O3)OC3(OC(C4OC(O)(CO)C(C)CC4C)CC3C)C2C)OC1C (centres undefined)
inactive: dose: 0.93 mg/kg/injection, schedule: Q01DX001 (ip), vehicle: saline 93 % of control | dose: 1.87 mg/kg/injection, schedule: Q01DX001 (ip), vehicle: saline 90 % of control | dose: 28.0 micrograms/kg/injection, schedule: Q01DX009 (ip), vehicle: saline 94 % of control | dose: 57.0 micrograms/kg/injection, schedule: Q01DX009 (ip), vehicle: saline 88 % of control | dose: 57.0 micrograms/kg/injection, schedule: Q04DX003 (ip), vehicle: saline 94 % of control | dose: 115.0 micrograms/kg/injection, schedule: Q01DX009 (ip), vehicle: saline 105 % of control | dose: 115.0 micrograms/kg/injection, schedule: Q04DX003 (ip), vehicle: saline 91 % of control | dose: 230.0 micrograms/kg/injection, schedule: Q04DX003 (ip), vehicle: saline 89 % of control

O=C(O)c1c(Br)c(Br)c(Br)c(Br)c1C(=O)Nc1cccc(C(F)(F)F)c1
inactive: [10] 107 % of control | [11] 108 % of control | [12] 107 % of control

COc1nn(O)cc(C)c1=NC(C)=O
inactive: [3] 102 % of control | [4] 98 % of control | [5] 105 % of control

Cc1cc(O)c(O)c(S(=O)(=O)c2ccccc2)c1
inactive: dose: 87.5 mg/kg/injection, schedule: Q01DX009 (ip), vehicle: saline with Tween-80 94 % of control | dose: 175.0 mg/kg/injection, schedule: Q01DX009 (ip), vehicle: saline with Tween-80 96 % of control | dose: 350.0 mg/kg/injection, schedule: Q01DX009 (ip), vehicle: saline with Tween-80 100 % of control

Cc1ccc(S(=O)(=O)OCC2C3CCC(c4ccccc43)C2COS(=O)(=O)c2ccc(C)cc2)cc1 (centres undefined)
inactive: [6] 109 % of control | [7] 105 % of control | [8] 88 % of control

C=C(Cl)CN(CCCC(=O)O)c1ccccc1
inactive: dose: 100.0 mg/kg/injection, schedule: Q01DX009 (ip), vehicle: other 108 % of control | dose: 100.0 mg/kg/injection, schedule: Q04DX003 (ip), vehicle: other 98 % of control | dose: 200.0 mg/kg/injection, schedule: Q01DX009 (ip), vehicle: other 107 % of control | dose: 200.0 mg/kg/injection, schedule: Q04DX003 (ip), vehicle: other 106 % of control | dose: 400.0 mg/kg/injection, schedule: Q01DX009 (ip), vehicle: other 102 % of control | dose: 400.0 mg/kg/injection, schedule: Q04DX003 (ip), vehicle: other 108 % of control

CCCOC(=O)C(CC(C)(C)C)CC(C)(C)C
inactive: [1] 104 % of control | [2] 104 % of control | [9] 101 % of control

CCCC(C)(O)C(C)(C)C (centres undefined)
inactive: [13] 106 % of control | [14] 106 % of control | [15] 90 % of control

Nc1nc(SCc2ccc([N+](=O)[O-])cc2)c2nc(SCc3ccc([N+](=O)[O-])cc3)n(C3OC(CO)C(O)C3O)c2n1 (centres undefined)
inactive: dose: 50.0 mg/kg/injection, schedule: Q01DX005 (ip), vehicle: saline 102 % of control | [16] 118 % of control | [17] 115 % of control

COc1ccc([N+](=O)[O-])cc1NC(=O)c1cccc(Cl)c1
inactive: [10] 114 % of control | [11] 98 % of control | [12] 102 % of control

CC1(C)OCC(C2OC(C)(C)OC2C(O)c2cn(-c3ccccc3)nn2)O1 (centres undefined)
inactive: [16] 102 % of control | [17] 104 % of control

CC(=O)OC1CCC2(C)C3=C(CCC2C1(C)C)C1(C)CCC(C(C)CCC2NC2(C)C)C1(C)CC3 (centres undefined)
inactive: dose: 100.0 mg/kg/injection, schedule: Q04DX003 (sc), vehicle: steriod suspending solution 105 % of control | dose: 200.0 mg/kg/injection, schedule: Q04DX003 (sc), vehicle: steriod suspending solution 101 % of control | dose: 400.0 mg/kg/injection, schedule: Q04DX003 (sc), vehicle: steriod suspending solution 105 % of control

CC1CC2C(CC1O)C2(C)C (centres undefined)
inactive: dose: 100.0 mg/kg/injection, schedule: Q01DX009 (ip), vehicle: saline 97 % of control | dose: 100.0 mg/kg/injection, schedule: Q04DX003 (ip), vehicle: saline 94 % of control | dose: 200.0 mg/kg/injection, schedule: Q01DX009 (ip), vehicle: saline 101 % of control | dose: 200.0 mg/kg/injection, schedule: Q04DX003 (ip), vehicle: saline 94 % of control | dose: 400.0 mg/kg/injection, schedule: Q01DX009 (ip), vehicle: saline 106 % of control | dose: 400.0 mg/kg/injection, schedule: Q04DX003 (ip), vehicle: saline 91 % of control

C[C@]12CC[C@H](O)C[C@H]1CC[C@@H]1[C@@H]2CC[C@]2(C)[C@@H](C3=CC(=O)OC3)[C@@H](O)C[C@]12O
inactive: dose: 50.0 mg/kg/injection, schedule: Q01DX001 (ip), vehicle: carboxymethylcellulose (CMC) 101 % of control | [13] 107 % of control | [14] 101 % of control | [15] 102 % of control

COC(C#N)C(=N)CC#N (centres undefined)
inactive: dose: 9.5 mg/kg/injection, schedule: Q01DX001 (ip), vehicle: saline 107 % of control | dose: 19.0 mg/kg/injection, schedule: Q01DX001 (ip), vehicle: saline 101 % of control
